The NIST ThermoML archive (doi:10.1021/acs.jced.7b00039)
Numbers after ± are expanded uncertainties.

Assay: wn = mass fraction of the nth substance listed
Settings: 100 kPa, Liquid; for viscosity: Cone and plate viscometry; for mass density: Vibrating tube method

CC(CC(C)(C)C)CP(=O)([O-])CC(C)CC(C)(C)C.CCCCCCCCCCCCCC[P+](CCCCCC)(CCCCCC)CCCCCC + CCCC(=O)O
viscosity (298 K, w2 = 0): 1023 ± 120 mPa·s | viscosity (298 K, w2 = 0.0122): 952 ± 110 mPa·s | viscosity (298 K, w2 = 0.0346): 785 ± 90 mPa·s | viscosity (298 K, w2 = 0.0349): 787 ± 91 mPa·s | viscosity (298 K, w2 = 0.0684): 562 ± 63 mPa·s | viscosity (298 K, w2 = 0.14): 348 ± 38 mPa·s | viscosity (298 K, w2 = 0.242): 216 ± 23 mPa·s | viscosity (298 K, w2 = 0.301): 159 ± 17 mPa·s | viscosity (298 K, w2 = 0.375): 92.7 ± 9.6 mPa·s | viscosity (298 K, w2 = 0.44): 56.9 ± 5.9 mPa·s | viscosity (298 K, w2 = 0.491): 38.8 ± 4 mPa·s | viscosity (298 K, w2 = 0.715): 7.55 ± 0.79 mPa·s | viscosity (298 K, w2 = 0.991): 1.69 ± 0.17 mPa·s | mass density (298 K, w2 = 0): 884.09 ± 9.7 kg/m3 | mass density (298 K, w2 = 0.0122): 886.44 ± 9.7 kg/m3 | mass density (298 K, w2 = 0.0346): 892.23 ± 9.7 kg/m3 | mass density (298 K, w2 = 0.0349): 889.81 ± 9.6 kg/m3 | mass density (298 K, w2 = 0.0684): 893.84 ± 9.6 kg/m3 | mass density (298 K, w2 = 0.14): 899.77 ± 9.5 kg/m3 | mass density (298 K, w2 = 0.242): 909.13 ± 9.5 kg/m3 | mass density (298 K, w2 = 0.301): 914.05 ± 9.4 kg/m3 | mass density (298 K, w2 = 0.375): 919.8 ± 9.4 kg/m3 | mass density (298 K, w2 = 0.44): 924.13 ± 9.4 kg/m3 | mass density (298 K, w2 = 0.491): 927.26 ± 9.4 kg/m3 | mass density (298 K, w2 = 0.715): 939.25 ± 9.4 kg/m3 | mass density (298 K, w2 = 0.991): 953.5 ± 9.5 kg/m3 | viscosity (310 K, w2 = 0): 521 ± 59 mPa·s | viscosity (310 K, w2 = 0.0122): 465 ± 52 mPa·s | viscosity (310 K, w2 = 0.0346): 389 ± 43 mPa·s | viscosity (310 K, w2 = 0.0349): 388 ± 43 mPa·s | viscosity (310 K, w2 = 0.0684): 278 ± 30 mPa·s | viscosity (310 K, w2 = 0.14): 181 ± 19 mPa·s | viscosity (310 K, w2 = 0.242): 118 ± 12 mPa·s | viscosity (310 K, w2 = 0.301): 87.9 ± 9.1 mPa·s | viscosity (310 K, w2 = 0.375): 53.5 ± 5.5 mPa·s | viscosity (310 K, w2 = 0.44): 34.4 ± 3.5 mPa·s | viscosity (310 K, w2 = 0.491): 24.6 ± 2.5 mPa·s | viscosity (310 K, w2 = 0.715): 5.51 ± 0.56 mPa·s | viscosity (310 K, w2 = 0.991): 1.39 ± 0.14 mPa·s | mass density (310 K, w2 = 0): 876.93 ± 9.6 kg/m3 | mass density (310 K, w2 = 0.0122): 879.26 ± 9.6 kg/m3 | mass density (310 K, w2 = 0.0346): 884.71 ± 9.6 kg/m3 | mass density (310 K, w2 = 0.0349): 882.5 ± 9.6 kg/m3 | mass density (310 K, w2 = 0.0684): 886.39 ± 9.5 kg/m3 | mass density (310 K, w2 = 0.14): 892.33 ± 9.4 kg/m3 | mass density (310 K, w2 = 0.242): 901.49 ± 9.4 kg/m3 | mass density (310 K, w2 = 0.301): 906.22 ± 9.3 kg/m3 | mass density (310 K, w2 = 0.375): 911.62 ± 9.3 kg/m3 | mass density (310 K, w2 = 0.44): 915.64 ± 9.3 kg/m3 | mass density (310 K, w2 = 0.491): 918.52 ± 9.3 kg/m3 | mass density (310 K, w2 = 0.715): 929.27 ± 9.3 kg/m3 | mass density (310 K, w2 = 0.991): 941.63 ± 9.4 kg/m3 | viscosity (318 K, w2 = 0): 345 ± 38 mPa·s | viscosity (318 K, w2 = 0.0122): 304 ± 33 mPa·s | viscosity (318 K, w2 = 0.0346): 257 ± 28 mPa·s | viscosity (318 K, w2 = 0.0349): 255 ± 28 mPa·s | viscosity (318 K, w2 = 0.0684): 185 ± 20 mPa·s | viscosity (318 K, w2 = 0.14): 123 ± 13 mPa·s | viscosity (318 K, w2 = 0.242): 82.2 ± 8.5 mPa·s | viscosity (318 K, w2 = 0.301): 62.1 ± 6.4 mPa·s | viscosity (318 K, w2 = 0.375): 38.9 ± 4 mPa·s | viscosity (318 K, w2 = 0.44): 25.5 ± 2.6 mPa·s | viscosity (318 K, w2 = 0.491): 18.8 ± 1.9 mPa·s | viscosity (318 K, w2 = 0.715): 4.56 ± 0.47 mPa·s | viscosity (318 K, w2 = 0.991): 1.23 ± 0.12 mPa·s | mass density (318 K, w2 = 0): 872.2 ± 9.5 kg/m3 | mass density (318 K, w2 = 0.0122): 874.5 ± 9.5 kg/m3 | mass density (318 K, w2 = 0.0346): 879.8 ± 9.5 kg/m3 | mass density (318 K, w2 = 0.0349): 877.64 ± 9.5 kg/m3 | mass density (318 K, w2 = 0.0684): 881.5 ± 9.5 kg/m3 | mass density (318 K, w2 = 0.14): 887.48 ± 9.4 kg/m3 | mass density (318 K, w2 = 0.242): 896.4 ± 9.3 kg/m3 | mass density (318 K, w2 = 0.301): 901 ± 9.3 kg/m3 | mass density (318 K, w2 = 0.375): 906.17 ± 9.3 kg/m3 | mass density (318 K, w2 = 0.44): 909.99 ± 9.2 kg/m3 | mass density (318 K, w2 = 0.491): 912.71 ± 9.2 kg/m3 | mass density (318 K, w2 = 0.715): 922.63 ± 9.3 kg/m3 | mass density (318 K, w2 = 0.991): 933.77 ± 9.3 kg/m3
